Measured values taken from ChEMBL document CHEMBL2074474, “Prodrugs of purine and pyrimidine analogues for the intestinal di/tri-peptide transporter PepT1: affinity for hPepT1 in Caco-2 cells, drug release in aqueous media and in vitro metabolism” (J Control Release, 2003).

Target: T1, Solute carrier family 15 member 1 (Homo sapiens, UniProt P46059)
T1 sequence (P46059 whole entry): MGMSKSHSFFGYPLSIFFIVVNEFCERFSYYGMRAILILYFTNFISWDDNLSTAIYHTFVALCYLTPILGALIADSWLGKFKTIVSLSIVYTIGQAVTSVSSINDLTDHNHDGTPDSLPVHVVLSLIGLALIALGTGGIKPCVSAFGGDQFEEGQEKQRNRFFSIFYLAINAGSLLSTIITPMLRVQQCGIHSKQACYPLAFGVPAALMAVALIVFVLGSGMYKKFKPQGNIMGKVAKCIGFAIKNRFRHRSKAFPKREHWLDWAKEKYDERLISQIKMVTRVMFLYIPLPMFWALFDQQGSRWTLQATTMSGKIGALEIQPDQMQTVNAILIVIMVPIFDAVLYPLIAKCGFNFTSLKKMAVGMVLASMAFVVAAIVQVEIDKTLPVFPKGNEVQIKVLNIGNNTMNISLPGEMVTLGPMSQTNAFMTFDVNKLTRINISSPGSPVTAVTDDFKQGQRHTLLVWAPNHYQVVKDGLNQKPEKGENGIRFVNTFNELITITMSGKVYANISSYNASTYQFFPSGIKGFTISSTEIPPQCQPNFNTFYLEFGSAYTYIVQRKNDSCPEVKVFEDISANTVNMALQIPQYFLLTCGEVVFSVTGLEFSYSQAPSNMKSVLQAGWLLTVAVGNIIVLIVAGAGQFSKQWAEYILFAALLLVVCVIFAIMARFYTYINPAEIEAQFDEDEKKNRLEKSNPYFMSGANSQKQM
Test: TP_TRANSPORTER: inhibition of Gly-Sar uptake in Caco-2 cells
Format: functional, cell-based

Row | Ki | SMILES
1 | 210 µM | Cc1cn(COC(=O)C(O)C[C@H](N)C(=O)N(C)CC(=O)O)c(=O)[nH]c1=O (some centres not stated)
2 | 280 µM | CN(CC(=O)O)C(=O)[C@@H](N)CCC(=O)OCCOCn1cnc2c(=O)[nH]c(N)nc21
